# Measured values: publication PMC9698340, “Discovery and SAR Study of Quinoxaline–Arylfuran Derivatives as a New Class of Antitumor Agents” (Pharmaceutics, 2022)
# Legend:
# [1] = test system: five melanoma cell lines, including mutant B-RAFV600E and wild-type; set-up: method as in PMID 30691132; settings: range over cell lines; read-out: IC50 values against five melanoma cell lines; cited from earlier work
# [2] = test system: L02 cells; test: CCK-8 cytotoxicity against normal hepatocytes L02; format: cell-based; settings: Homo sapiens, 48 h, read-out: IC50 ± SD, L02 (human normal hepatocytes)
# Procedure: (§1) Human lung carcinoma cell lines A549, human cervical cancer cell lines HeLa, human prostate cancer cell lines PC3, human colorectal carcinoma cell lines HCT116, and human liver cells L02 were purchased from the Chinese Academy of Sciences Shanghai Cell Bank (Shanghai, China). HeLa, A549, PC3, HCT116, and L02 cells were cultured in DMEM Dulbecco’s Modified Eagle Medium (DMEM; Gibco Inc., Gaithersburg, MD, USA). All cultures were provided with 10% fetal bovine serum (FBS; YHSM, Beijing, China), 100 IU/mL penicillin, and 100 μg/mL streptomycin, and cells were incubated at 37 °C in an atmosphere of 5% CO2.
# (§2) Cell viability was determined using a CCK-8 kit (Apexbio, Houston, TX, USA). […] Subsequently, absorbance was assessed at 450 nm. Three duplicates were set in each group.
# To further evaluate the anticancer effect of QW12, we evaluated its cytotoxicity against four human cancer cell lines: HeLa (Human cervical tumor), PC3 (Human prostate tumor), HCT116 (Human colorectal carcinomas), and A549 (Human lung carcinoma). […] Furthermore, the IC50 values of QW12 against PC3 and HCT116 were similar to those of nifuroxazide.
# [3] = test system: PC3 cells; test: CCK-8 antiproliferation assay, PC3; format: cell-based; settings: Homo sapiens, PC-3, 48 h
# Procedure: as §1, §2
# (§3) All synthesized quinoxalines compounds were tested for in vitro cytotoxicity against four cancer cell lines (HeLa, PC3, A549, and HCT116). The inhibitory effects of these compounds were evaluated using the CCK-8 assay after treatment with 20 μM of each compound. […] The species of phenyl substituents have a significant effect on the activity. […] By comparison, hydrophobic substitution at the phenyl ring gave derivatives with relatively low potency (QW7–8). In addition, large substituents on the phenyl ring exerted an unfavorable influence on the potency of the compounds (QW8 and QW16).
# [4] = test system: HCT116 cells; test: CCK-8 antiproliferation assay, HCT116; format: cell-based; settings: Homo sapiens, HCT-116, 48 h
# Procedure: as §1, §2, §3
# [5] = test system: HeLa cells; test: CCK-8 antiproliferation assay, HeLa; format: cell-based; settings: Homo sapiens, 48 h
# Procedure: as §1, §2, §3
# [6] = test system: A549 cells; test: CCK-8 antiproliferation assay, A549; format: cell-based; settings: Homo sapiens, 48 h
# Procedure: as §1, §2, §3
"IC50 ([3]; CCK-8, read-out: IC50 ± SD, PC3) [µM]","IC50 ([4]; CCK-8, read-out: IC50 ± SD, HCT116) [µM]","IC50 ([5]; HeLa, CCK-8, read-out: IC50 ± SD, HeLa) [µM]","IC50 ([6]; CCK-8, read-out: IC50 ± SD, A549) [µM]",Structure (SMILES),IC50 [1] [µM],IC50 [2] [µM],"inhibition at 20 µM ([3]; 20 μM, CCK-8, mean ± SD, read-out: Inhibition Rate (%) at 20 μM, PC3) [%]","inhibition at 20 µM ([4]; 20 μM, CCK-8, mean ± SD, read-out: Inhibition Rate (%) at 20 μM, HCT116) [%]","inhibition at 20 µM ([5]; 20 μM, CCK-8, mean ± SD, read-out: Inhibition Rate (%) at 20 μM, HeLa) [%]","inhibition at 20 µM ([6]; 20 μM, CCK-8, mean ± SD, read-out: Inhibition Rate (%) at 20 μM, A549) [%]"
,,,,N=C(N)[Se]Cc1nc2ccccc2nc1C[Se]C(=N)N [Compound 5],0.8 to 3.8,,,,,
9.83 ± 0.05,10.46 ± 0.04,16.65 ± 0.08,8.06 ± 0.03,"O=C(N/N=C/c1ccc([N+](=O)[O-])o1)c1ccc(O)cc1 [Nifuroxazide, nifuroxazide, reference compound]",,25.3 ± 0.31,75.29 ± 0.33,85.31 ± 0.24,80.38 ± 0.17,91.23 ± 0.04
